Data reported in PubChem BioAssay AID1845197 (Molecular Pharmacology Branch, DTP, NCI, 2023).
Where “and” joins values, the source holds several entries; their conditions need not be identical. Equal values may be shown once.

Tested on: 349418-098-R tumor spheroid viability
Assay: Anticancer human tumor 349418-098-R patient-derived lung adenocarcinoma cell line growth inhibition
Settings: spheroids with HUVEC and MSC; for viability, T/C: stronger effect = lower value
Summary of the method: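 Complex spheroids of malignant cells with endothelial cells and mesenchymal stem cells; agents alone or combined, from near clinical Cmax (or 10 microM if unknown) down in half-log steps, 0.25% DMSO final.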

[1] = curve of first compound, second compound 30 pM
[2] = curve of first compound, second compound 94.9 pM
[3] = curve of first compound, second compound 0.0003 µM
[4] = curve of first compound, second compound 0.000949 µM
[5] = curve of first compound, second compound 0.003 µM
[6] = second compound 30 pM, first compound 0.0316 µM
[7] = second compound 30 pM, first compound 0.1 µM
[8] = second compound 30 pM, first compound 0.316 µM
[9] = second compound 30 pM, first compound 1 µM
[10] = second compound 30 pM, first compound 3.16 µM
[11] = second compound 30 pM, first compound 10 µM
[12] = second compound 94.9 pM, first compound 0.0316 µM
[13] = second compound 94.9 pM, first compound 0.1 µM
[14] = second compound 94.9 pM, first compound 0.316 µM
[15] = second compound 94.9 pM, first compound 1 µM
[16] = second compound 94.9 pM, first compound 3.16 µM
[17] = second compound 94.9 pM, first compound 10 µM
[18] = second compound 0.0003 µM, first compound 0.0316 µM
[19] = second compound 0.0003 µM, first compound 0.1 µM
[20] = second compound 0.0003 µM, first compound 0.316 µM
[21] = second compound 0.0003 µM, first compound 1 µM
[22] = second compound 0.0003 µM, first compound 3.16 µM
[23] = second compound 0.0003 µM, first compound 10 µM
[24] = second compound 0.000949 µM, first compound 0.0316 µM
[25] = second compound 0.000949 µM, first compound 0.1 µM
[26] = second compound 0.000949 µM, first compound 0.316 µM
[27] = second compound 0.000949 µM, first compound 1 µM
[28] = second compound 0.000949 µM, first compound 3.16 µM
[29] = second compound 0.000949 µM, first compound 10 µM
[30] = second compound 0.003 µM, first compound 0.0316 µM
[31] = second compound 0.003 µM, first compound 0.1 µM
[32] = second compound 0.003 µM, first compound 0.316 µM
[33] = second compound 0.003 µM, first compound 1 µM
[34] = second compound 0.003 µM, first compound 3.16 µM
[35] = second compound 0.003 µM, first compound 10 µM
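Note: spheroids exposed to compound for 7 days before measurement.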
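Throughout, for viability, T/C: percent of vehicle control viability with 100% = DMSO-treated spheroids.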

## COc1ccc([C@@H](O)c2cc(-c3ncnc4cc(N5CCOCC5)ccc34)c(F)cc2Cl)nn1 + COc1cc2c(cc1O)CCNC21CSC2c3c(OC(C)=O)c(C)c4c(c3C(COC1=O)N1C(O)C3Cc5cc(C)c(OC)c(O)c5C(C21)N3C)OCO4
[1]
  IC50: 5.96 µM
[2]
  IC50: 3.85 µM
[3]
  IC50: 0.399 µM
[4]
  IC50: < 0.0316 µM
[5]
  IC50: < 0.0316 µM
[6]
  viability, T/C: 97.2%
[7]
  viability, T/C: 92.9%
[8]
  viability, T/C: 102%
[9]
  viability, T/C: 98.6%
[10]
  viability, T/C: 83.3%
[11]
  viability, T/C: 22.5%
[12]
  viability, T/C: 105%
[13]
  viability, T/C: 101%
[14]
  viability, T/C: 94.2%
[15]
  viability, T/C: 94.3%
[16]
  viability, T/C: 56.3%
[17]
  viability, T/C: 18.3%
[18]
  viability, T/C: 84.1%
[19]
  viability, T/C: 90.8%
[20]
  viability, T/C: 60%
[21]
  viability, T/C: 9.13%
[22]
  viability, T/C: 2.15%
[23]
  viability, T/C: 0.54%
[24]
  viability, T/C: 0.44%
[25]
  viability, T/C: 0.79%
[26]
  viability, T/C: 0.24%
[27]
  viability, T/C: 0.35%
[28]
  viability, T/C: 1.2%
[29]
  viability, T/C: 2.19%
[30]
  viability, T/C: 1.61%
[31]
  viability, T/C: 2.06%
[32]
  viability, T/C: 2.65%
[33]
  viability, T/C: 3.97%
[34]
  viability, T/C: 4.18%
[35]
  viability, T/C: 4.47%

## Cn1ncnc1[C@H]1c2n[nH]c(=O)c3cc(F)cc(c23)N[C@@H]1c1ccc(F)cc1
Compound 0.00949 µM
  viability, T/C: 98.5% and 97% and 84.1%
Compound 0.03 µM
  viability, T/C: 96.8% and 96.3% and 103%
Compound 0.0949 µM
  viability, T/C: 95.9% and 95.6% and 97.9%
Compound 0.3 µM
  viability, T/C: 92.7% and 92.3% and 93.1%
Compound 0.949 µM
  viability, T/C: 93.1% and 85% and 89.9%
Compound 3 µM
  viability, T/C: 9.44% and 11.2% and 10.9%
Curve of compound
  IC50: 1.72 µM and 1.64 µM and 1.7 µM

## CC1COCCN1c1cc(-c2ccnn2C)c2ccnc(-c3ccn[nH]3)c2n1 (configuration not stated) + COc1cc2c(cc1O)CCNC21CSC2c3c(OC(C)=O)c(C)c4c(c3C(COC1=O)N1C(O)C3Cc5cc(C)c(OC)c(O)c5C(C21)N3C)OCO4
[1]
  IC50: 0.0631 µM
[2]
  IC50: 0.0365 µM
[3]
  IC50: < 0.0316 µM
[4]
  IC50: < 0.0316 µM
[5]
  IC50: < 0.0316 µM
[6]
  viability, T/C: 88.5%
[7]
  viability, T/C: 24.3%
[8]
  viability, T/C: 13.4%
[9]
  viability, T/C: 12.1%
[10]
  viability, T/C: 12.2%
[11]
  viability, T/C: 11.8%
[12]
  viability, T/C: 54.9%
[13]
  viability, T/C: 16.2%
[14]
  viability, T/C: 9.93%
[15]
  viability, T/C: 10.6%
[16]
  viability, T/C: 12.4%
[17]
  viability, T/C: 10.6%
[18]
  viability, T/C: 12%
[19]
  viability, T/C: 4.5%
[20]
  viability, T/C: 5.77%
[21]
  viability, T/C: 6.89%
[22]
  viability, T/C: 7.2%
[23]
  viability, T/C: 7.37%
[24]
  viability, T/C: 0.38%
[25]
  viability, T/C: 0.68%
[26]
  viability, T/C: 0.46%
[27]
  viability, T/C: 0.39%
[28]
  viability, T/C: 0.25%
[29]
  viability, T/C: 0.23%
[30]
  viability, T/C: 1.52%
[31]
  viability, T/C: 1.22%
[32]
  viability, T/C: 1.66%
[33]
  viability, T/C: 1.39%
[34]
  viability, T/C: 1.43%
[35]
  viability, T/C: 1.5%

## CC1COCCN1c1cc(-c2ccnn2C)c2ccnc(-c3ccn[nH]3)c2n1 (configuration not stated) + CC[C@@]1(O)C(=O)OCc2c1cc1n(c2=O)Cc2cc3c(CN(C)C)c(O)ccc3nc2-1
[5]
  IC50: 0.079 µM
Curve of first compound, second compound 0.00949 µM
  IC50: < 0.0316 µM
Curve of first compound, second compound 0.03 µM
  IC50: < 0.0316 µM
Curve of first compound, second compound 0.0949 µM
  IC50: < 0.0316 µM
Curve of first compound, second compound 0.3 µM
  IC50: < 0.0316 µM
[30]
  viability, T/C: 107%
[31]
  viability, T/C: 35.1%
[32]
  viability, T/C: 16%
[33]
  viability, T/C: 15%
[34]
  viability, T/C: 15.6%
[35]
  viability, T/C: 14%
Second compound 0.00949 µM, first compound 0.0316 µM
  viability, T/C: 42.4%
Second compound 0.00949 µM, first compound 0.1 µM
  viability, T/C: 20.4%
Second compound 0.00949 µM, first compound 0.316 µM
  viability, T/C: 13.6%
Second compound 0.00949 µM, first compound 1 µM
  viability, T/C: 16.2%
Second compound 0.00949 µM, first compound 3.16 µM
  viability, T/C: 12.8%
Second compound 0.00949 µM, first compound 10 µM
  viability, T/C: 12%
Second compound 0.03 µM, first compound 0.0316 µM
  viability, T/C: 13.5%
Second compound 0.03 µM, first compound 0.1 µM
  viability, T/C: 11.5%
Second compound 0.03 µM, first compound 0.316 µM
  viability, T/C: 9.56%
Second compound 0.03 µM, first compound 1 µM
  viability, T/C: 11.4%
Second compound 0.03 µM, first compound 3.16 µM
  viability, T/C: 11.6%
Second compound 0.03 µM, first compound 10 µM
  viability, T/C: 10.8%
Second compound 0.0949 µM, first compound 0.0316 µM
  viability, T/C: 5.41%
Second compound 0.0949 µM, first compound 0.1 µM
  viability, T/C: 6.47%
Second compound 0.0949 µM, first compound 0.316 µM
  viability, T/C: 5.98%
Second compound 0.0949 µM, first compound 1 µM
  viability, T/C: 6.27%
Second compound 0.0949 µM, first compound 3.16 µM
  viability, T/C: 7.68%
Second compound 0.0949 µM, first compound 10 µM
  viability, T/C: 8.39%
Second compound 0.3 µM, first compound 0.0316 µM
  viability, T/C: 3.23%
Second compound 0.3 µM, first compound 0.1 µM
  viability, T/C: 2.54%
Second compound 0.3 µM, first compound 0.316 µM
  viability, T/C: 2.76%
Second compound 0.3 µM, first compound 1 µM
  viability, T/C: 3.58%
Second compound 0.3 µM, first compound 3.16 µM
  viability, T/C: 4.37%
Second compound 0.3 µM, first compound 10 µM
  viability, T/C: 5.17%
